Data: PMC10374545, “A small molecule inhibitor of PTP1B and PTPN2 enhances T cell anti-tumor immunity” (Nature Communications, 2023)
Values joined by “and” are separate entries in the source; they are usually repeats but may differ in a detail not shown here. Equal values may be shown once.

Tests used:
[1] = tested on: STAT-1 target genes in AT3-OVA tumors; experiment: qPCR of STAT-1 target genes in AT3-OVA tumors; assay type: in vivo, mouse; design: key: relative expression by comparative Ct (ΔΔCt), normalized to Rps18 or Gapdh; details: tumour gene expression, Lck-Cre;Ptpn2flfl+CMP-182, individual mice (Figure 7F)
Procedure: For quantitative real-time PCR analysis, RNA from tumors was isolated using RNAzol (Sigma-Aldrich, St. Louis, MO), and RNA quality was assessed using a NanoDrop 2000 (Thermo Fisher Scientific, Waltham MA). mRNA was reverse-transcribed using the High-Capacity cDNA Reverse Transcription Kit (Applied Biosystems, Thermo Fisher Scientific, Waltham, MA) and processed for quantitative Real-Time PCR using the Fast SYBR Green Master Mix (Applied Biosystems, Thermo Fisher Scientific, Waltham MA) and PrimePCR™ SYBR Green Assays (Bio-Rad, Hercules, CA) for Cxcl9 (qMmuCID0023784), Cxcl10 (qMmuCED0049500), Tapbp (qMmuCEP0035035), Tap1 (qMmuCEP0057739), […], H2ab1 (qMmuCIP0029038), Cd274 (qMmuCED0044192), H2k1 (qMmuCEP0034842), Tnf (qMmuCED0004141) and Ifng (qMmuCID0006268). Relative gene expression was determined by normalization to the house-keeping gene Rps18 (qMmuCED0045430) or Gapdh (qMmuCED0027497). Gene quantification was performed with the comparative Ct (ΔΔCt) method.

PTPN2 = biological target: T1, PTPN2 (Homo sapiens, UniProt P17706); experiment: PTP inhibition assay with DiFMUP substrate (IC50); assay type: biochemical
T1 construct: PTPN2, residues 1-387; made in house; host or cells: E. coli BL21(DE3)
T1 sequence (P17706 1-387 isoform P17706-2): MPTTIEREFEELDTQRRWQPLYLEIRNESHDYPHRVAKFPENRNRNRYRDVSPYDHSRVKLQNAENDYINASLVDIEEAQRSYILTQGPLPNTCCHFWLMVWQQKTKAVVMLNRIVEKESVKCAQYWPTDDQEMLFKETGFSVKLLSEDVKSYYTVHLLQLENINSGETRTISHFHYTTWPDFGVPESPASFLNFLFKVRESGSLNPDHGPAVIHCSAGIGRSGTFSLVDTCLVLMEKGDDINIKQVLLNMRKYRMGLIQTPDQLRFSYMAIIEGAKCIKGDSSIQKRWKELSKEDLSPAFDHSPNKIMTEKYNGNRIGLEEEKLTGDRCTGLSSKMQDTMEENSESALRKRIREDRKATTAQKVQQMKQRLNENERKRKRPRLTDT
Procedure: E. coli BL21(DE3) (Novagen) was used as an expression host and the induction of protein expression was carried out in LB media with 1 mM IPTG at 18 °C overnight. Cell pellets were stored at −80 °C for subsequent protein purification.
Protein purification of PTPs for enzymatic assays was conducted at 4 °C. Frozen cell pellets were lysed by sonication in 40 ml cold lysis buffer (50 mM Tris-HCl, pH 8.0, 150 mM NaCl, 5 mM imidazole, and 1 mM PMSF) per litre cell pellet. Cell lysates were clarified by centrifugation using a Beckman JA-18 rotor for 15 min at 5308 x g. The supernatant was incubated with HisPur Ni-NTA resin (Thermo Scientific) for 2 h and then packed onto a column and washed with 50 resin volume of buffer A (50 mM Tris-HCl, pH 8.0, 500 mM NaCl, 5 mM imidazole). The His-tagged proteins were eluted with Buffer B (50 mM Tris-HCl, pH=8.0, 500 mM NaCl, 300 mM imidazole,). Pooled His-protein-containing fractions were concentrated, loaded onto a HiLoad 26/600 Superdex 75 column (GE Healthcare Biosciences) and eluted with storage buffer (50 mM Tris-HCl, pH 8.0, 150 mM NaCl, 1 mM DTT, 10% glycerol). […] The protein was aliquoted and stored at −80 °C.
The PTP kinetic assay was modified from previous reported protocols[73],[74]. […] The fluorescence signal was measured using a CLARIOstar Plus Microplate Spectrophotometer (BMG Labtech) using excitation and emission wavelengths of 340 nm and 450 nm, respectively. […]
To determine the mode of inhibition, the reactions were initiated by the addition of enzyme (final concentration for PTP1B and PTPN2 was 0.05 nM) to the reaction mixtures (0.2 ml) containing various concentrations of DiFMUP with different concentrations of the inhibitor. […] The fluorescence signal was measured using a CLARIOstar Plus Microplate Spectrophotometer (BMG Labtech) using excitation and emission wavelength of 340 nm and 450 nm, respectively. […]

With `CC(C)(O)CCOc1ccc2cc(O)c(N3CC(=O)NS3(=O)=O)c(F)c2c1` [Compound 182, 5-(1-Fluoro-3-hydroxy-7-(3-hydroxy-3-methylbutoxy)naphthalen-2-yl)−1,2,5-thiadiazolidin-3-one 1,1-dioxide] the H2-Ab1 [1] was 1.37 and 2.449 and 1.819 and 1.855 and 0.6743 and 0.4848, the IFNg [1] was 2.663 and 2.871 and 3.337 and 2.746 and 0.6434 and 0.3583 and the cd274 [1] was 1.409 and 1.249 and 1.434 and 1.371 and 1.147 and 0.5391. For the same molecule, the cxcl9 [1] was 1.651 and 1.828 and 1.511 and 1.806 and 0.4356 and 0.3111, the cxcl10 [1] was 1.078 and 1.3193 and 1.359 and 1.098 and 0.6504 and 0.3928 and the IC50 (PTPN2; DiFMUP 10 μM as substrate) was 0.58 ± 0.02 nM. The IC50 (PTPN2; TC-PTP, DiFMUP 10 μM, pH 7.0, 25 °C) was 0.58 ± 0.02 nM.
